# Reference: patent US10758534B2 (Vertex Pharmaceuticals Incorporated, priority 2014, dated 2020)
# Target: T1, F508del (Homo sapiens, UniProt P13569, DEL508-508)
# T1 construct: expressed in transfected cells
# Test: Protocol 1: membrane potential optical assay (FLIPR III, voltage sensing dye), identification of potentiator compounds
# Format: cell-based
# Settings: Table 3, compounds of Table 1
# Description: Membrane Potential Optical Methods for Assaying F508del Modulation Properties of Compounds
# The assay utilizes fluorescent voltage sensing dyes to measure changes in membrane potential using a fluorescent plate reader (e.g., FLIPR III, Molecular Devices, Inc.) as a readout for increase in functional F508del in NIH 3T3 cells. The driving force for the response is the creation of a chloride ion gradient in conjunction with channel activation by a single liquid addition step after the cells have previously been treated with compounds and subsequently loaded with a voltage sensing dye.
# Identification of Potentiator Compounds
# To identify potentiators of F508del, a double-addition HTS assay format was developed. This HTS assay utilizes fluorescent voltage sensing dyes to measure changes in membrane potential on the FLIPR III as a measurement for increase in gating (conductance) of F508del in temperature-corrected F508del NIH 3T3 cells. The driving force for the response is a Cl^− ion gradient in conjunction with channel activation with forskolin in a single liquid addition step using a fluorescent plate reader such as FLIPR III after the cells have previously been treated with potentiator compounds (or DMSO vehicle control) and subsequently loaded with a redistribution dye.
# Bath Solution #1: (in mM) NaCl 160, KCl 4.5, CaCl2 2, MgCl2 1, HEPES 10, pH 7.4 with NaOH.
# Chloride-free bath solution: Chloride salts in Bath Solution #1 (above) are substituted with gluconate salts.
# NIH3T3 mouse fibroblasts stably expressing F508del are used for optical measurements of membrane potential. The cells are maintained at 37° C. in 5% CO2 and 90% humidity in Dulbecco's modified Eagle's medium supplemented with 2 mM glutamine, 10% fetal bovine serum, 1×NEAA, β-ME, 1× pen/strep, and 25 mM HEPES in 175 cm^2 culture flasks. For all optical assays, the cells were seeded at ˜20,000/well in 384-well matrigel-coated plates and cultured for 2 hrs at 37° C. before culturing at 27° C. for 24 hrs. for the potentiator assay. For the correction assays, the cells are cultured at 27° C. or 37° C. with and without compounds for 16-24 hours.
# T1 sequence (P13569 with tags, fused parts or gaps DEL508-508): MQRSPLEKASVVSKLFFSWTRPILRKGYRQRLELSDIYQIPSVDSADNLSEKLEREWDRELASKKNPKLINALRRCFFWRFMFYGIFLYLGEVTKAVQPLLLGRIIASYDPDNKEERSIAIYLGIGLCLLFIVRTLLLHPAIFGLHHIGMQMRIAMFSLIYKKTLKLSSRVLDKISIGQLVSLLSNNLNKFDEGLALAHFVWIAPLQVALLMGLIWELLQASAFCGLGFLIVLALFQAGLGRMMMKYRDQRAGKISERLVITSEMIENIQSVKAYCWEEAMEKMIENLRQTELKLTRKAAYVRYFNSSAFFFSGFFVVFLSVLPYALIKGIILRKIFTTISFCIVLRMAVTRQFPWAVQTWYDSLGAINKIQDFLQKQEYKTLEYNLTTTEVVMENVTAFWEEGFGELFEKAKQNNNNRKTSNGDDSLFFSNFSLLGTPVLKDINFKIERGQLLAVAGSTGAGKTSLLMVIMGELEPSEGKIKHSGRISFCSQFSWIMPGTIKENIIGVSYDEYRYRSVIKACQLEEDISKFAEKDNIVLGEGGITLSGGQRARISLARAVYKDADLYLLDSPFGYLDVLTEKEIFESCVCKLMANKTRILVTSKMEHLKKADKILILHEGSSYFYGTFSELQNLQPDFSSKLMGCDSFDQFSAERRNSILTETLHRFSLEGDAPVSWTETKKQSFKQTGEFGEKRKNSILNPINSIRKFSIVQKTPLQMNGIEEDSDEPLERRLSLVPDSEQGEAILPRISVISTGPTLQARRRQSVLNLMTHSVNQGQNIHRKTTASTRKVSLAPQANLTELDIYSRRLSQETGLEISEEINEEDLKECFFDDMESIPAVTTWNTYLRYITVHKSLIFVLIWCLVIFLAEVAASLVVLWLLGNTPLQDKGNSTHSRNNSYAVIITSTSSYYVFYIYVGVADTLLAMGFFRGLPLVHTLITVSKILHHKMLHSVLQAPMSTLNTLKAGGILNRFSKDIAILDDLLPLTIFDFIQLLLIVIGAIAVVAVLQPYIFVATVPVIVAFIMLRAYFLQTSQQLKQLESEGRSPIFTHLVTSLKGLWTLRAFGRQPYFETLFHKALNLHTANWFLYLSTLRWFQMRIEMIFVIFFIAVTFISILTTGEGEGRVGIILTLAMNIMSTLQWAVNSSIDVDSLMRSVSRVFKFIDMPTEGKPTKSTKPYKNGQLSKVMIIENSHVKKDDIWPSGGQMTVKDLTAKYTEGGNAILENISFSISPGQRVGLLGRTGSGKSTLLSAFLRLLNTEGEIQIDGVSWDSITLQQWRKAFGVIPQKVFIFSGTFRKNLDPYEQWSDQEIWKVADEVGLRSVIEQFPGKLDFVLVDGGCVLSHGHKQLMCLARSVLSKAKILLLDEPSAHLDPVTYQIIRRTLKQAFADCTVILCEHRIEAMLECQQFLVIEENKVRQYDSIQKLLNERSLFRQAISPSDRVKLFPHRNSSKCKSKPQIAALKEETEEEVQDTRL
row,Structure (SMILES),EC30
1,"CC1CN(c2ncccc2C(=O)NS(=O)(=O)c2cccc(OC3(C)CCCC3)n2)C(C)(C)C1 (stereo not shown) [Compound 1936, N—[[6-(1-methylcyclopentoxy)-2-pyridyl]sulfonyl]-2-(2,2,4-trimethylpyrrolidin-1-yl)pyridine-3-carboxamide]",+++ (“+++” means <3 uM)
2,"Cc1ccc(-c2ccc(C(=O)NS(=O)(=O)N3CC[C@H](N)C3)c(N3C[C@@H](C)CC3(C)C)n2)c(F)c1 [Compound 1967, N-[(3S)-3-aminopyrrolidin-1-yl]sulfonyl-6-(2-fluoro-4-methyl-phenyl)-2-[(4S)-2,2,4-trimethylpyrrolidin-1-yl]pyridine-3-carboxamide]",++ (“++” means between 3 uM and 10 uM)
3,"C[C@@H]1CN(c2nc(C(C)(C)C)c(/C=C/C(=O)O)cc2C(=O)NS(=O)(=O)c2cccc(N)n2)C(C)(C)C1 [Compound 1547, (E)-3-[5-[(6-amino-2-pyridyl)sulfonylcarbamoyl]-2-tert-butyl-6-[(4S)-2,2,4-trimethylpyrrolidin-1-yl]-3-pyridyl]prop-2-enoic acid]",++ (“++” means between 3 uM and 10 uM)
4,"CCOc1cc(C)n(-c2ccc(C(=O)NS(=O)(=O)c3cccc(N)n3)c(N3C[C@@H](C)CC3(C)C)n2)n1 [Compound 1473, N-[(6-amino-2-pyridyl)sulfonyl]-6-(3-ethoxy-5-methyl-pyrazol-1-yl)-2-[(4S)-2,2,4-trimethylpyrrolidin-1-yl]pyridine-3-carboxamide]",+++ (“+++” means <3 uM)
5,"CC1CCN(c2nc(C(C)(C)C)ccc2C(=O)NS(=O)(=O)c2ccc(N)cc2)CC1 [Compound 1037, N-(4-aminophenyl)sulfonyl-6-tert-butyl-2-(4-methyl-1-piperidyl)pyridine-3-carboxamide]",++ (“++” means between 3 uM and 10 uM)
6,"CC(C)Oc1ccc(-c2ccc(C(=O)NS(=O)(=O)c3cccc(N)n3)c(N3CCC[C@@H]3C(F)(F)F)n2)cn1 [Compound 1230, N-[(6-amino-2-pyridyl)sulfonyl]-6-(6-isopropoxy-3-pyridyl)-2-[(2R)-2-(trifluoromethyl)pyrrolidin-1-yl]pyridine-3-carboxamide]",++ (“++” means between 3 uM and 10 uM)
7,"Cc1cc(C)c(Oc2nc(-c3cccc(O)c3)ccc2C(=O)NS(=O)(=O)c2cccc(N)n2)c(C)c1 [Compound 908, N-[(6-amino-2-pyridyl)sulfonyl]-6-(3-hydroxyphenyl)-2-(2,4,6-trimethylphenoxy)pyridine-3-carboxamide]",+ (“+” means greater than 10 uM)
8,"CC(C)Oc1ccc(-c2ccc(C(=O)NS(=O)(=O)c3cccc(N)n3)c(N3CCC(C(C)(C)C)C3)n2)cn1 (stereo not shown) [Compound 1206, N-[(6-amino-2-pyridyl)sulfonyl]-2-(3-tert-butylpyrrolidin-1-yl)-6-(6-isopropoxy-3-pyridyl)pyridine-3-carboxamide]",++ (“++” means between 3 uM and 10 uM)
9,"CCC(Oc1nc(-c2cc(F)cc(OCC(C)C)c2)ccc1C(=O)NS(=O)(=O)c1cccc(N)n1)c1ccccc1 (stereo not shown) [Compound 1068, N-[(6-amino-2-pyridyl)sulfonyl]-6-(3-fluoro-5-isobutoxy-phenyl)-2-(1-phenylpropoxy)pyridine-3-carboxamide]",+++ (“+++” means <3 uM)
10,"COc1ccc(-c2ccc(C(=O)NS(=O)(=O)c3cccc(N)n3)c(Oc3c(C)cc(C)cc3C)n2)cc1O [Compound 1251, N-[(6-amino-2-pyridyl)sulfonyl]-6-(3-hydroxy-4-methoxy-phenyl)-2-(2,4,6-trimethylphenoxy)pyridine-3-carboxamide]",++ (“++” means between 3 uM and 10 uM)
11,"Cc1cc(C)c(Oc2nc(-c3ccc(OCc4ccccc4)cc3F)ccc2C(=O)NS(=O)(=O)c2cccc(N)n2)c(C)c1 [Compound 1113, N-[(6-amino-2-pyridyl)sulfonyl]-6-(4-benzyloxy-2-fluoro-phenyl)-2-(2,4,6-trimethylphenoxy)pyridine-3-carboxamide]",+++ (“+++” means <3 uM)
12,"CC(C)CCOc1cccc(-c2cnc(N3CC(C)CC3(C)C)c(C(=O)NS(=O)(=O)c3cccc(N)n3)c2)c1 (stereo not shown) [Compound 1894, N-[(6-amino-2-pyridyl)sulfonyl]-5-(3-isopentyloxyphenyl)-2-(2,2,4-trimethylpyrrolidin-1-yl)pyridine-3-carboxamide]",+++ (“+++” means <3 uM)
13,"C[C@@H]1CN(c2nc(C3CCCOC3)ccc2C(=O)NS(=O)(=O)c2cccc(N)n2)C(C)(C)C1 (stereo partly drawn) [Compound 1632, N-[(6-amino-2-pyridyl)sulfonyl]-6-tetrahydropyran-3-yl-2-[(4S)-2,2,4-trimethylpyrrolidin-1-yl]pyridine-3-carboxamide]",++ (“++” means between 3 uM and 10 uM)
14,"CCOc1cccc2c1CN(Cc1c(C)cc(C)cc1C)C2(C)C(=O)NS(=O)(=O)c1cccc(NC(C)=O)n1 (stereo not shown) [Compound 1415, N-[(6-acetamido-2-pyridyl)sulfonyl]-4-ethoxy-1-methyl-2-[(2,4,6-trimethylphenyl)methyl]isoindoline-1-carboxamide]",+++ (“+++” means <3 uM)
15,"Cc1ccccc1-c1ccc(C(=O)NS(=O)(=O)c2cccnc2N)c(N2C[C@@H](C)CC2(C)C)n1 [Compound 1766, N-[(2-amino-3-pyridyl)sulfonyl]-6-(o-tolyl)-2-[(4S)-2,2,4-trimethylpyrrolidin-1-yl]pyridine-3-carboxamide]",+++ (“+++” means <3 uM)
16,"CC(C)Oc1ccc(-c2ccc(C(=O)NS(=O)(=O)c3cccc(N)n3)c(N3CCCC(OCC4CC4)C3)n2)cn1 (stereo not shown) [Compound 858, N-[(6-amino-2-pyridyl)sulfonyl]-2-[3-(cyclopropylmethoxy)-1-piperidyl]-6-(6-isopropoxy-3-pyridyl)pyridine-3-carboxamide]",++ (“++” means between 3 uM and 10 uM)
17,"Cc1cc(C)c(CN2c3ccccc3C[C@@H]2C(=O)NS(=O)(=O)c2ccccc2)c(C)c1 [Compound 918, (2R)—N-(benzenesulfonyl)-1-[(2,4,6-trimethylphenyl)methyl]indoline-2-carboxamide]",+++ (“+++” means <3 uM)
18,"CC(C)COc1cc(F)cc(-c2ccc(C(=O)NS(=O)(=O)N3CCC(F)(F)C3)c(N3C[C@@H](C)CC3(C)C)n2)c1 [Compound 1956, N-(3,3-difluoropyrrolidin-1-yl)sulfonyl-6-(3-fluoro-5-isobutoxy-phenyl)-2-[(4S)-2,2,4-trimethylpyrrolidin-1-yl]pyridine-3-carboxamide]",+++ (“+++” means <3 uM)
19,"CC1CN(c2ncccc2C(=O)NS(=O)(=O)c2cccc(Oc3ccc(C(C)C)cc3)n2)C(C)(C)C1 (stereo not shown) [Compound 1902, N—[[6-(4-isopropylphenoxy)-2-pyridyl]sulfonyl]-2-(2,2,4-trimethylpyrrolidin-1-yl)pyridine-3-carboxamide]",+++ (“+++” means <3 uM)
20,"C[C@@H]1CN(c2nc(C3=CC(C)(C)OCC3)ccc2C(=O)NS(=O)(=O)c2cccc(N)n2)C(C)(C)C1 [Compound 1369, N-[(6-amino-2-pyridyl)sulfonyl]-6-(6,6-dimethyl-2,3-dihydropyran-4-yl)-2-[(4S)-2,2,4-trimethylpyrrolidin-1-yl]pyridine-3-carboxamide]",+++ (“+++” means <3 uM)
21,"Cc1cn(-c2ccc(C(=O)NS(=O)(=O)c3ccc[nH]c3=O)c(N3C[C@@H](C)CC3(C)C)n2)nc1OCC(C)C [Compound 1743, 6-(3-isobutoxy-4-methyl-pyrazol-1-yl)-N-[(2-oxo-1H-pyridin-3-yl)sulfonyl]-2-[(4S)-2,2,4-trimethylpyrrolidin-1-yl]pyridine-3-carboxamide]",+++ (“+++” means <3 uM)
22,"Cc1cc(C)c(Oc2nc(N3[C@H](C)CC[C@@H]3C)c(C)cc2C(=O)NS(=O)(=O)c2cccc(N)n2)c(C)c1 [Compound 1589, N-[(6-amino-2-pyridyl)sulfonyl]-6-[(2R,5S)-2,5-dimethylpyrrolidin-1-yl]-5-methyl-2-(2,4,6-trimethylphenoxy)pyridine-3-carboxamide]",+++ (“+++” means <3 uM)
23,"Cc1ccc(-c2ccc(C(=O)NS(=O)(=O)c3cccnc3N)c(N3C[C@@H](C)CC3(C)C)n2)c(C)c1 [Compound 1871, N-[(2-amino-3-pyridyl)sulfonyl]-6-(2,4-dimethylphenyl)-2-[(4S)-2,2,4-trimethylpyrrolidin-1-yl]pyridine-3-carboxamide]",+++ (“+++” means <3 uM)
24,"CCOc1cccc2c1CN(Cc1ccc(OC(C)C)nc1)C2(C)C(=O)NS(=O)(=O)c1cccc(N)n1 (stereo not shown) [Compound 1662, N-[(6-amino-2-pyridyl)sulfonyl]-4-ethoxy-2-[(6-isopropoxy-3-pyridyl)methyl]-1-methyl-isoindoline-1-carboxamide]",++ (“++” means between 3 uM and 10 uM)
25,"CCCOc1cccc(-c2ccc(C(=O)NS(=O)(=O)c3ccc[nH]c3=O)c(Oc3c(C)cc(C)cc3C)n2)c1Cl [Compound 955, 6-(2-chloro-3-propoxy-phenyl)-N-[(2-oxo-1H-pyridin-3-yl)sulfonyl]-2-(2,4,6-trimethylphenoxy)pyridine-3-carboxamide]",++ (“++” means between 3 uM and 10 uM)
